In US7205305B2, “Inhibitors of p38” (Vertex Pharmaceuticals Incorporated, priority 1996, dated 2007) one finds IC50 data, which are given here for 27 compounds.

The term IC50 denotes the midpoint of a concentration-inhibition curve. High values mean weaker potency, low ones greater potency.

For assay [1], the system named is IL-6 production in whole blood. In words: Inhibition of IL-6 production in LPS-stimulated whole blood ("WB"). It counts as cell-based, human. Particulars: Homo sapiens. The procedure:
(§1) Inhibitors were serially diluted in DMSO from a 20 mM stock. At least 6 serial dilutions were prepared. Then 4× inhibitor stocks were prepared by adding 4 μl of an inhibitor dilution to 1 ml of RPMI1640 medium/10% fetal bovine serum. The 4× inhibitor stocks contained inhibitor at concentrations of 80 μM, 32 μM, 12.8 μM, 5.12 μM, 2.048 μM, 0.819 μM, 0.328 μM, 0.131 μM, 0.052 μM, 0.021 μM etc. The 4× inhibitor stocks were pre-warmed at 37° C. until use.
(§2) Alternatively, whole blood containing an anti-coagulant was used directly in the assay.
(§3) We placed 100 μl of cell suspension or whole blood in each well of a 96-well cell culture plate. Then we added 50 μl of the 4× inhibitor stock to the cells. Finally, we added 50 μl of a lipopolysaccharide (LPS) working stock solution (16 ng/ml in cell culture medium) to give a final concentration of 4 ng/ml LPS in the assay. The total assay volume of the vehicle control was also adjusted to 200 μl by adding 50 μl cell culture medium. The PBMC cells or whole blood were then incubated overnight (for 12–15 hours) at 37° C./5% CO2 in a humidified atmosphere.
(§4) The next day the cells were mixed on a shaker for 3–5 minutes before centrifugation at 500×g for 5 minutes. Cell culture supernatants were harvested and analyzed by ELISA for levels of IL-1b (R & D Systems, Quantikine kits, #DBL50), TNF-α (BioSource, #KHC3012), IL-6 (Endogen, #EH2-IL6) and IL-8 (Endogen, #EH2-IL8) according to the instructions of the manufacturer. The ELISA data were used to generate dose-response curves from which IC50 values were derived.

In assay [2] the test system is IL-1 production in LPS-stimulated PBMCs. Description: Inhibition of IL-1 production in LPS-stimulated PBMCs ("cell"). In kind it is cell-based, human. Particulars: Homo sapiens, PBMC. The procedure:
as §1
(§5) Fresh human blood buffy cells were separated from other cells in a Vacutainer CPT from Becton & Dickinson (containing 4 ml blood and enough DPBS without Mg^2+/Ca^2+ to fill the tube) by centrifugation at 1500×g for 15 min. Peripheral blood mononuclear cells (PBMCs), located on top of the gradient in the Vacutainer, were removed and washed twice with RPMI1640 medium/10% fetal bovine serum. PBMCs were collected by centrifugation at 500×g for 10 min. The total cell number was determined using a Neubauer Cell Chamber and the cells were adjusted to a concentration of 4.8×10^6 cells/ml in cell culture medium (RPMI1640 supplemented with 10% fetal bovine serum).
as §3, §4

The subject of assay [3] is TNF production in whole blood. Description: Inhibition of TNF production in LPS-stimulated whole blood ("WB"). It counts as cell-based, human. Conditions: Homo sapiens. The procedure: as §1, §2, §3, §4
The target of a further assay is activated p38 (Homo sapiens, UniProt Q16539). Description: Inhibition of phosphorylation of EGF receptor peptide ("kinase"). It counts as biochemical. Conditions: inhibition of phosphorylation of EGF receptor peptide by activated p38. The gist of the method: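 Activated p38 was preincubated with inhibitor for 15 min at room temperature in 100 mM HEPES pH 7.6, 10 mM MgCl2, 25 mM β-glycerophosphate, 10% glycerol, 5% DMSO final. Reaction used 200 μM EGF receptor peptide and 100 μM ATP for 30 min at 30° C. TFA-quenched phosphopeptide was quantified by reverse-phase HPLC.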
Chain of activated p38 (Q16539 whole entry): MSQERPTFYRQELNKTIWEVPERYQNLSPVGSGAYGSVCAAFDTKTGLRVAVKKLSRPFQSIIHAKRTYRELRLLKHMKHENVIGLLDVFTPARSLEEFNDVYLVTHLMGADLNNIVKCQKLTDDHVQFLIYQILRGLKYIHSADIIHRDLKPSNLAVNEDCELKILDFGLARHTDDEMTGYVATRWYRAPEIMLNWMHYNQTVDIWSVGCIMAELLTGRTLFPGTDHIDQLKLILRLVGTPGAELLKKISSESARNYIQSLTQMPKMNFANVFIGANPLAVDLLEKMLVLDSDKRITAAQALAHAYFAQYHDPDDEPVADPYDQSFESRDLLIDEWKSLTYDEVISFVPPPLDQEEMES

Assay [4] deals with TNF production in LPS-stimulated PBMCs. Description: Inhibition of TNF production in LPS-stimulated PBMCs ("cell"). In kind it is cell-based, human. Conditions: Homo sapiens, PBMC. The procedure:
as §1, §5, §3, §4

In assay [5] the test system is IL-1 production in whole blood. Description: Inhibition of IL-1 production in LPS-stimulated whole blood ("WB"). It counts as cell-based, human. Conditions: Homo sapiens. The procedure: as §1, §2, §3, §4

Where only a bound is given, the exact number is not on record here.

For the compound `NC(=O)C(c1cccc(-c2ccccc2)n1)c1c(Cl)cccc1Cl` (centres unmarked) [202/301], the IC50 in assay [1] was ≥ 0.5 µM; in assay [2], 0.1 to 0.5 µM; in assay [3] it was ≥ 0.5 µM; against activated p38, ≤ 0.1 µM; in assay [4], 0.1 to 0.5 µM; in assay [5], ≥ 0.5 µM.

In the case of `O=c1ncn2nc(Sc3ccc(F)cc3)ccc2c1-c1c(Cl)cccc1Cl` [Compound 12], the IC50 is ≥ 0.5 µM in assay [1]; 0.1 to 0.5 µM in assay [2]; ≥ 0.5 µM in assay [3]; 0.1 to 1 µM against activated p38; 0.1 to 0.5 µM in assay [4]; ≥ 0.5 µM in assay [5].

Turning to `Cc1ccccc1Sc1ccc2c(-c3c(Cl)cccc3Cl)c(=O)ncn2n1` [Compound 23], the IC50 in assay [1] is ≥ 0.5 µM; in assay [2] it was 0.1 to 0.5 µM; in assay [3], ≥ 0.5 µM; at activated p38, 0.1 to 1 µM; in assay [4], ≥ 0.5 µM; in assay [5], ≥ 0.5 µM.

Turning to `O=c1ncn2nc(Sc3ccc(F)c(Cl)c3)ccc2c1-c1c(Cl)cccc1Cl` [Compound 24], the IC50 in assay [2] was 0.1 to 0.5 µM; in assay [3] it was ≥ 0.5 µM; against activated p38 it was 0.1 to 1 µM; in assay [4], 0.1 to 0.5 µM; in assay [5], ≥ 0.5 µM.

On to `COC(=O)c1ccccc1Sc1ccc2c(-c3c(Cl)cccc3Cl)c(=O)ncn2n1` [Compound 26], for which the IC50 in assay [1] was ≥ 0.5 µM; in assay [2], ≤ 0.1 µM; in assay [3], ≥ 0.5 µM; at activated p38, ≥ 1 µM; in assay [4], 0.1 to 0.5 µM; in assay [5] it was ≥ 0.5 µM.

For `O=C(O)c1ccccc1Sc1ccc2c(-c3c(Cl)cccc3Cl)c(=O)ncn2n1` [Compound 27], the IC50 in assay [1] was ≥ 0.5 µM; in assay [2] it was ≥ 0.5 µM; in assay [3], ≥ 0.5 µM; on activated p38, 0.1 to 1 µM; in assay [4], ≥ 0.5 µM; in assay [5], ≥ 0.5 µM.

For the compound `O=c1ncn2nc(Sc3ccccn3)ccc2c1-c1c(Cl)cccc1Cl` [Compound 30], the IC50 in assay [2] is ≥ 0.5 µM; against activated p38 it was ≥ 1 µM; in assay [4] it was ≥ 0.5 µM; in assay [5], ≥ 0.5 µM.

Turning to `Cc1ccc(Sc2ccc3c(-c4c(Cl)cccc4Cl)c(=O)ncn3n2)c(C)c1` [Compound 32], the IC50 in assay [1] is ≥ 0.5 µM; in assay [2] it was ≥ 0.5 µM; in assay [3] it was ≥ 0.5 µM; at activated p38 it was 0.1 to 1 µM; in assay [4], 0.1 to 0.5 µM; in assay [5], ≥ 0.5 µM.

In the case of `O=c1ncn2nc(Sc3ccccc3O)ccc2c1-c1c(Cl)cccc1Cl` [Compound 33], the IC50 in assay [1] was ≥ 0.5 µM; in assay [2], 0.1 to 0.5 µM; in assay [3] it was ≥ 0.5 µM; on activated p38, 0.1 to 1 µM; in assay [4] it was 0.1 to 0.5 µM; in assay [5] it was ≥ 0.5 µM.

Consider `Nc1cc(F)ccc1Sc1ccc2c(-c3c(Cl)cccc3Cl)c(=O)ncn2n1` [Compound 35], for which the IC50 is ≥ 0.5 µM in assay [1]; 0.1 to 0.5 µM in assay [2]; ≥ 0.5 µM in assay [3]; 0.1 to 1 µM against activated p38; ≥ 0.5 µM in assay [4]; ≥ 0.5 µM in assay [5].

Turning to `COc1ccc(-c2c(=O)ncn3nc(Sc4ccc(F)cc4)ccc23)c(Cl)c1OC` [Compound 36], the IC50 in assay [1] is ≥ 0.5 µM; in assay [2], ≥ 0.5 µM; in assay [3] it was ≥ 0.5 µM; against activated p38 it was ≥ 1 µM; in assay [4], ≥ 0.5 µM; in assay [5] it was ≥ 0.5 µM.

On to `Nc1ccc(Cl)c(-c2c(=O)ncn3nc(Sc4ccc(Br)cc4)ccc23)c1Cl` [Compound 37], for which the IC50 in assay [1] is ≥ 0.5 µM; in assay [2] it was 0.1 to 0.5 µM; in assay [3], ≥ 0.5 µM; on activated p38, 0.1 to 1 µM; in assay [4], ≥ 0.5 µM; in assay [5] it was ≥ 0.5 µM.

In the case of `O=c1ncn2nc(Sc3ccc(F)cc3Cl)ccc2c1-c1c(Cl)cccc1Cl` [Compound 38], the IC50 was 0.25 to 0.5 µM in assay [1]; ≤ 0.1 µM in assay [2]; 0.25 to 0.5 µM in assay [3]; ≤ 0.1 µM against activated p38; 0.1 to 0.5 µM in assay [4]; 0.25 to 0.5 µM in assay [5].

With `O=C(CCl)Nc1ccc(-c2c(=O)ncn3nc(Sc4ccc(F)cc4)ccc23)c(Cl)c1` [Compound 49], the IC50 in assay [1] is ≥ 0.5 µM; in assay [2] it was ≤ 0.1 µM; in assay [3], ≥ 0.5 µM; against activated p38 it was 0.1 to 1 µM; in assay [4] it was ≥ 0.5 µM; in assay [5] it was ≥ 0.5 µM.

On to `COC(=O)CCc1ccc(SC2=NN3CNC(=O)C(c4c(Cl)cccc4Cl)=C3C=C2)cc1` [Compound 120], for which the IC50 in assay [1] was ≥ 0.5 µM; in assay [2] it was 0.1 to 0.5 µM; in assay [3], ≥ 0.5 µM; in assay [4] it was ≥ 0.5 µM; in assay [5], ≥ 0.5 µM.

Regarding `COc1ccccc1-c1cccc(C(C(N)=O)c2c(Cl)cccc2Cl)n1` (centres unmarked) [Compound 324], the IC50 in assay [2] is 0.1 to 0.5 µM; against activated p38 it was 0.1 to 1 µM; in assay [4], ≥ 0.5 µM.

With `NC(=O)C(c1cccc(-c2ccc(F)c(Cl)c2)n1)c1c(F)cccc1Cl` (centres unmarked) [Compound 333], the values for the IC50 (in assay [2]; against activated p38; in assay [4]) were ≥ 0.5 µM, 0.1 to 1 µM and ≥ 0.5 µM, respectively.

With `NC(=O)C(c1cccc(-c2cccc(Cl)c2)n1)c1c(F)cccc1Cl` (centres unmarked) [Compound 341], the IC50 in assay [2] is 0.1 to 0.5 µM; on activated p38, 0.1 to 1 µM; in assay [4], 0.1 to 0.5 µM.

In the case of `NC(=O)C(c1cccc(-c2ccccc2CN2CCCC2)n1)c1c(Cl)cccc1Cl` (centres unmarked) [Compound 350], the IC50 was 0.1 to 0.5 µM in assay [2], ≥ 1 µM at activated p38 and ≥ 0.5 µM in assay [4].

On to `NC(=O)C(c1cccc(-c2ccccc2CNCCO)n1)c1c(Cl)cccc1Cl` (centres unmarked) [Compound 351], for which the values for the IC50 (in assay [2]; on activated p38; in assay [4]) were ≥ 0.5 µM, ≥ 1 µM and ≥ 0.5 µM, respectively.

Regarding `NC(=O)C(c1cccc(-c2cccc(C(F)(F)F)c2)n1)c1c(F)cccc1Cl` (centres unmarked) [Compound 353], the values for the IC50 (in assay [2]; against activated p38; in assay [4]) were ≥ 0.5 µM, 0.1 to 1 µM and ≥ 0.5 µM, respectively.

With `NC(=O)C(c1cccc(-c2ccccc2CNc2ccccc2)n1)c1c(Cl)cccc1Cl` (centres unmarked) [Compound 358], the IC50 in assay [2] was ≥ 0.5 µM; at activated p38, 0.1 to 1 µM; in assay [4], ≥ 0.5 µM.

`Cc1cc(F)ccc1-c1cccc(C(C(N)=O)c2c(F)cccc2Cl)n1` (centres unmarked) [Compound 361]: the values for the IC50 (in assay [2]; against activated p38; in assay [4]) were 0.1 to 0.5 µM, 0.1 to 1 µM and ≥ 0.5 µM, respectively.

Take `Cc1ccccc1-c1cccc(N(C(N)=O)c2c(C)cccc2C)n1` [Compound 405]: the IC50 was ≤ 0.1 µM in assay [2], ≤ 0.1 µM at activated p38 and 0.1 to 0.5 µM in assay [4].

On to `Cc1ccc(-c2cccc(N(C(N)=O)c3c(Cl)cccc3Cl)n2)cc1` [Compound 406], for which the IC50 is 0.1 to 0.5 µM in assay [2], 0.1 to 1 µM against activated p38 and ≥ 0.5 µM in assay [4].

`Cc1cccc(C)c1N(C(N)=O)c1cccc(-c2ccc(F)cc2)n1` [Compound 407]: the IC50 is 0.1 to 0.5 µM in assay [2], 0.1 to 1 µM at activated p38 and ≥ 0.5 µM in assay [4].

As for `NC(=O)N(c1cccc(-c2ccc(Cl)cc2)n1)c1c(Cl)cccc1Cl` [Compound 408], the IC50 in assay [2] is ≤ 0.1 µM; on activated p38, ≤ 0.1 µM; in assay [4] it was 0.1 to 0.5 µM.
